Data: US10772807B2, “Lipid microcapsules preferably comprising a retinoid, and composition containing same, method for the production thereof, and use of same in dermatology” (GALDERMA RESEARCH & DEVELOPMENT, priority 2013, dated 2020)

What was measured:
[1] = Maximum solubility of Trifarotene in various oily phases; type: physicochemical
[2] = Chemical stability of Trifarotene in oily phases (HPLC-UV); type: physicochemical
Protocol: The stability of the active agent was evaluated by liquid chromatography coupled to a UV detector (HPLC-UV).

[3] = in Caprylic/capric acid triglycerides (Miglyol ® 812N)
[4] = in Diisopropyl adipate (Schercemol Dia Ester)
[5] = in Macrogol oleate (Labrafil ® M1944CS)
[6] = in Octyldodecanol (Eutanol ® G)
[7] = in PPG-15 stearyl ether (Arlamol PS11E-LQ)
[8] = in Propylene glycol dicaprylate/dicaprate (Myritol ® PC)
[9] = in Propylene glycol monolaurate (Lauroglycol ® FCC)

## CC(C)(C)c1cc(-c2cc(-c3ccc(C(=O)O)cc3)ccc2OCCO)ccc1N1CCCC1 [Trifarotene, 3″-tert-butyl-4′-(2-hydroxyethoxy)-4″-pyrrolidin-1-yl-[1,1′;3′,1″]-terphenyl-4-carboxylic acid]
[1]; in Alkyl (C12-15) benzoate (Crodamol AB)
  Maximum solubility: 0.026 % w/w
[1]; [3]
  Maximum solubility: 0.019 % w/w
[1]; [4]
  Maximum solubility: 0.297 % w/w
[1]; [5]
  Maximum solubility: 0.156 % w/w
[1]; in Mineral oil
  Maximum solubility: 0.0001 % w/w
[1]; [6]
  Maximum solubility: 0.137 % w/w
[1]; [7]
  Maximum solubility: 0.292 % w/w
[1]; [8]
  Maximum solubility: 0.069 % w/w
[1]; in Propylene glycol monocaprylate (Capryol ® 90)
  Maximum solubility: 0.802 % w/w
[1]; [9]
  Maximum solubility: 0.296 % w/w
[1]; in Sweet almond oil
  Maximum solubility: 0.011 % w/w
[2]; [3]
  Stability: 6 months AT/40 °C
[2]; [4]
  Stability: 6 months AT/40 °C
[2]; [5]
  Stability: 6 months AT/40 °C
[2]; [6]
  Stability: Unstable
[2]; [7]
  Stability: 6 months AT/40 °C
[2]; [8]
  Stability: Unstable
[2]; in Propylene glycol monocaprylate (Capryol ® 90), AT = ambient temperature
  Stability: 6 months AT/40 °C
[2]; [9]
  Stability: 6 months AT/40 °C
[2]; in Sweet almond oil
  Stability: 6 months AT/40 °C
